Measured values taken from US20230118955A1 (priority 2020, published 2023).
Marks after values point to notes of the source that are not given here.

Experiments:
3CLpro protease = format: biochemical, SARS-CoV
SARS-CoV-2 = format: cell-based
SARS-CoV-1 = format: cell-based
trypsin = assay: Trypsin (surrogate for TMPRSS2) cleavage of Site S2' peptide (Peptide 2, Acetyl-SKPSKR-pNA) after incubation with MGO; format: biochemical; conditions: 8 mM MGO, 400 μM peptide 2, 5 nM trypsin
recombinant human furin = assay: Furin cleavage of Site S1 peptide (Peptide 1, Acetyl-SPRRAR-pNA) after incubation with MGO; format: biochemical; conditions: 8 mM MGO, 400 μM peptide 1, 5 nM furin

Structure (SMILES)	inhibition of 3CLpro protease activity (cleavage of pNA substrate) (3CLpro protease)	further results
O=c1c(O)c(-c2ccc(O)c(O)c2)oc2cc(O)cc(O)c12 [quercetin]	inhibit activity of 3CLpro protease	–
CCO [EtOH, ethanol]	–	LRV (log10 reduction of virus compared to the virus control) (SARS-CoV-2): 3.9 log10; Virus (CCID50/0.1 mL) (SARS-CoV-2): <0.7**** CCID50/0.1 mL; LRV (log10 reduction of virus compared to the virus control) (SARS-CoV-1): 2.8 log10; Virus (CCID50/0.1 mL) (SARS-CoV-1): 1.5 ± 0.2 CCID50/0.1 mL
CC(=O)C=O [MGO, methylglyoxal]	–	reduction in pNA liberated (activation of peptide 2 by trypsin) (trypsin; incubation 4 h): 88%; reduction in pNA liberated (activation of peptide 2 by trypsin) (trypsin; incubation time 0): 21%; reduction in pNA liberated (activation of peptide 1 by furin) (recombinant human furin; incubation 3 h): 97%; reduction in pNA liberated (activation of peptide 1 by furin) (recombinant human furin; incubation 4 h): 97%; reduction in pNA liberated (activation of peptide 1 by furin) (recombinant human furin; incubation time 0): 90%
O=C1c2c(O)cc(O)cc2O[C@H](c2ccccc2)[C@H]1O [pinobanksin]	inhibit activity of 3CLpro protease	–
O=c1c(O)c(-c2ccc(O)cc2)oc2cc(O)cc(O)c12 [kaempferol]	inhibit activity of 3CLpro protease	–
O=c1c(O)c(-c2ccccc2)oc2cc(O)cc(O)c12 [galangin]	inhibit activity of 3CLpro protease	–
O=C(O)C(O)Cc1ccccc1 (stereo not drawn) [3-phenyllactic acid]	inhibit activity of 3CLpro protease	–
O=c1cc(-c2ccc(O)c(O)c2)oc2cc(O)cc(O)c12 [luteolin]	inhibit activity of 3CLpro protease	–
COc1ccc([C@@H]2CC(=O)c3c(O)cc(O[C@@H]4O[C@H](CO[C@@H]5O[C@@H](C)[C@H](O)[C@@H](O)[C@H]5O)[C@@H](O)[C@H](O)[C@H]4O)cc3O2)cc1O [hesperidin]	inhibit activity of 3CLpro protease	–
O=C(O)/C=C/c1ccc(O)cc1 [p-coumaric acid]	inhibit activity of 3CLpro protease	–
O=C1C[C@@H](c2ccccc2)Oc2cc(O)cc(O)c21 [pinocembrin]	inhibit activity of 3CLpro protease	–
